Assay results from ChEMBL document CHEMBL1201862, “PubChem BioAssay data set” (2004).
Each block holds one compound with its values, some of them ahead of it. Calls of active or inactive are those of the source.

What was measured:
[1] = target: T1, Heat shock factor protein 1 (Mus musculus, UniProt P38532); experiment: decrease of HSF1-responsive luciferase luminescence – cell-based, NIH3T3, dose retest, confirmation (AID 2382); assay type: functional;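 note: NIH3T3 fibroblasts with HSF1-driven luciferase reporter stressed by proteasome inhibitor MG132; luminescence from HSF1-driven luciferase expression after 8 hours of MG132 stress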
T1 sequence (P38532 whole entry): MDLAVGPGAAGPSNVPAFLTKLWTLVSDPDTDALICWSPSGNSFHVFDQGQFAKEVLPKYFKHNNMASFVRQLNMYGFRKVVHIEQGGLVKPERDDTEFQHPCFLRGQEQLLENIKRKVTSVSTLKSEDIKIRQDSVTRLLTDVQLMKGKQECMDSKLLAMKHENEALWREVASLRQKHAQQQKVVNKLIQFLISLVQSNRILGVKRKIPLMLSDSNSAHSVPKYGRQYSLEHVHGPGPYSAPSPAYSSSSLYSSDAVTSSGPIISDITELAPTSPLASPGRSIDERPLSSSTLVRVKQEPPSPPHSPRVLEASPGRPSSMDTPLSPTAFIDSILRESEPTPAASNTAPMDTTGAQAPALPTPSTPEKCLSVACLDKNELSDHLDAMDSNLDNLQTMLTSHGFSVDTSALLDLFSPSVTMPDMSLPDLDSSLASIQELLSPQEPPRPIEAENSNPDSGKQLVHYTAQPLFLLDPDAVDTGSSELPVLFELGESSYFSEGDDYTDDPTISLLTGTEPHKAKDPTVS

[2] = target: Alkaline phosphatase, placental type (Homo sapiens, UniProt P05187); experiment: human placental alkaline phosphatase inhibition – biochemical, luminescence, confirmation (AID 1512); assay type: functional
[3] = target: T2, Alkaline phosphatase, tissue-nonspecific isozyme (Homo sapiens, UniProt P05186); experiment: potency against alkaline phosphatase TNAP – biochemical, luminescent, dose response, SAR follow-up (AID 1056)
T2 sequence (P05186 whole entry): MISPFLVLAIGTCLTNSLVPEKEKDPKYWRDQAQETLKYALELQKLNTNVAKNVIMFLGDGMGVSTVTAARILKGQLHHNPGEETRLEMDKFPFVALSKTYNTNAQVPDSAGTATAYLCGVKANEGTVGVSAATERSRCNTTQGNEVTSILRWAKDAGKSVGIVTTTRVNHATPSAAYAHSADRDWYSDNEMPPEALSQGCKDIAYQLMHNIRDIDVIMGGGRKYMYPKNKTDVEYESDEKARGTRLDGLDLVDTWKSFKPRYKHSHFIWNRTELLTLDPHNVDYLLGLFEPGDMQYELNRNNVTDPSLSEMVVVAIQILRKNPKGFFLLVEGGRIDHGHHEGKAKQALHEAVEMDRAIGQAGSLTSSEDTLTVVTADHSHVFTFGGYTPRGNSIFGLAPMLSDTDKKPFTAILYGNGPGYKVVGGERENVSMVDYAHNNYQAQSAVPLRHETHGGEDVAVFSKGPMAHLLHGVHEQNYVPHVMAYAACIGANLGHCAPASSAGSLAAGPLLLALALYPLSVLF

[4] = target: T3, Microphthalmia-associated transcription factor (Homo sapiens, UniProt O75030); experiment: reducers of TRPM1 reporter luminescence, concentration series – cell-based, SK-MEL-5, cherry-picked, set 3, MITF inhibitor project, dose response (AID 493073); assay type: functional;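 note: SK-MEL-5 melanoma cells with luciferase driven by the MITF target TRPM1 promoter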
T3 sequence (O75030 whole entry): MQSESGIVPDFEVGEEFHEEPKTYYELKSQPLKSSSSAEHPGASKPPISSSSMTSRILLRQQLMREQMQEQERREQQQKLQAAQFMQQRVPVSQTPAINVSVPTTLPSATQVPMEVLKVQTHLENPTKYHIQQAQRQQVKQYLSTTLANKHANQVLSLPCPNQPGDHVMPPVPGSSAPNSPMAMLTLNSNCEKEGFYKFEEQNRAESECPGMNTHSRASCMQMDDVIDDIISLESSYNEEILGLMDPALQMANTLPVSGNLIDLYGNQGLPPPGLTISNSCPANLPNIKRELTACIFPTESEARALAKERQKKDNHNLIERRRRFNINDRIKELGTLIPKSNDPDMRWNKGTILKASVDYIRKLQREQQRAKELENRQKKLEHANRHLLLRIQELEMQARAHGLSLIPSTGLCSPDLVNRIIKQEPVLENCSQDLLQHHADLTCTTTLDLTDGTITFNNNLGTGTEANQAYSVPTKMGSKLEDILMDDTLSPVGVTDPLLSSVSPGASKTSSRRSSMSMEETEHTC

[5] = target: T4, Rac GTPase-activating protein 1 (Homo sapiens, UniProt Q9H0H5); experiment: blockers of MgcRacGAP-driven Rac1 GTP hydrolysis – biochemical, ADP Hunter fluorescence, primary and confirmatory, confirmation (AID 624330); assay type: functional
T4 sequence (Q9H0H5 whole entry): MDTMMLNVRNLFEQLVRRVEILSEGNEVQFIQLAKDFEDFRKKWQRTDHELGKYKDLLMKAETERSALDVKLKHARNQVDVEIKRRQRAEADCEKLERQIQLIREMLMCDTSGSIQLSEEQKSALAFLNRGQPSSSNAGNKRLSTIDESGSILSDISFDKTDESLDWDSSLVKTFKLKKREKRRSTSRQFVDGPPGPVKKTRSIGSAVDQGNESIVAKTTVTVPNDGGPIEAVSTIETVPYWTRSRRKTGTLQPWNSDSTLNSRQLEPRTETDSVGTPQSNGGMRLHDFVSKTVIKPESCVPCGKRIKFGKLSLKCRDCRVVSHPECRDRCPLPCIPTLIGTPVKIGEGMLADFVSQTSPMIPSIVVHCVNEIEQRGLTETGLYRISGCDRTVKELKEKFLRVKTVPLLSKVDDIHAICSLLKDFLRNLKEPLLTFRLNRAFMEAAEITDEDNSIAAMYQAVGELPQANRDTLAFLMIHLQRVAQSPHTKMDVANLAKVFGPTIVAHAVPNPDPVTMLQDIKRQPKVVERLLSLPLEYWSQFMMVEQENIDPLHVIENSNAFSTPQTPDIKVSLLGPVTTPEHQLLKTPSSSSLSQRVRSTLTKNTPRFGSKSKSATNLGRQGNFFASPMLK

[6] = target: T5, Tyrosine-protein phosphatase non-receptor type 7 (Homo sapiens, UniProt P35236); experiment: SAR analysis of chemical inhibitors of HePTP using a Fluorescent assay - Set 2. [Related pubchem assays (depositor defined):AID1059, AID1077, AID1661, AID2085, AID521]; assay type: functional
T5 sequence (P35236 whole entry): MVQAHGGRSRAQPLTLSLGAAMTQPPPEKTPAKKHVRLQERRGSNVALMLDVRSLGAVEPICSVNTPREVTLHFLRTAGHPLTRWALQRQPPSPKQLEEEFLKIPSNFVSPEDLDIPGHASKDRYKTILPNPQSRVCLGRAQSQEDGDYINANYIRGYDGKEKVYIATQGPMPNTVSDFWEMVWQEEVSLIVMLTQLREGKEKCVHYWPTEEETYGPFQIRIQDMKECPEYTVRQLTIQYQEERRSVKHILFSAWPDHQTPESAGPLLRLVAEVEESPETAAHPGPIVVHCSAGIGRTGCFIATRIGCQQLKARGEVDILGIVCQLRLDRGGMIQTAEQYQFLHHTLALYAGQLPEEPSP

[7] = target: Dual specificity protein phosphatase 3 (Homo sapiens, UniProt P51452); experiment: SAR VHR1 Fluorescent Assay for In Vitro dose response studies Set 2. [Related pubchem assays (depositor defined):AID1654, AID1661, AID1878]; assay type: functional
Bcl-2-related protein A1 = target: T6, Bcl-2-related protein A1 (Mus musculus, UniProt Q07440); assay type: functional;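 note: confirmatory dose–response counterscreen on Bfl-1, used to check hits from a UBC13 polyubiquitin inhibitor campaign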
T6 sequence (Q07440 whole entry): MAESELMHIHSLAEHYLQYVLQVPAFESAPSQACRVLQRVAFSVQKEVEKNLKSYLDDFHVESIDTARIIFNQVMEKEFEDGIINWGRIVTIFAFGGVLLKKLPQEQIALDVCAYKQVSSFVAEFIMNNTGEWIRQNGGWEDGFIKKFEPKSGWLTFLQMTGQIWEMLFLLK

[8] = target: T7, Ubiquitin-conjugating enzyme E2 N (Homo sapiens, UniProt P61088); assay type: functional
T7 sequence (P61088 whole entry): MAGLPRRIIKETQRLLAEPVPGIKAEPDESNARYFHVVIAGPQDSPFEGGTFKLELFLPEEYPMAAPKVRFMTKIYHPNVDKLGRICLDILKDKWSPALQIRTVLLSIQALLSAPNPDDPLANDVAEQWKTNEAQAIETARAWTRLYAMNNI

[9] = target: T7, Ubiquitin-conjugating enzyme E2 N; assay type: functional; remark: listed apart in the source
[10] = target: E3 ubiquitin-protein ligase XIAP (Homo sapiens, UniProt P98170); experiment: Counter Screen using XIAP-Bir3 for Chemical Antagonists of Bir1/2 domains of IAP-family anti-apoptotic proteins. [Related pubchem assays (depositor defined):AID1018, AID1449, AID1514, AID1638, AID1749, AID1750, AID488957, AID488963]
[11] = Luminescence Cell-Based Dose Retest to Confirm Inhibitors of Cancer Stem Cells. [Related pubchem assays (depositor defined):AID2717, AID2721]; assay type: functional; details: Homo sapiens
[12] = target: Eukaryotic translation initiation factor 4E (Mus musculus, UniProt P63073); experiment: blockers of eIF4G binding by eIF4E – biochemical, TR-FRET, dose response (AID 855); assay type: functional;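 note: potency for disrupting eIF4E binding to eIF4GI seen as loss of FRET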
Eukaryotic translation initiation factor 4E, sequence (P63073 whole entry): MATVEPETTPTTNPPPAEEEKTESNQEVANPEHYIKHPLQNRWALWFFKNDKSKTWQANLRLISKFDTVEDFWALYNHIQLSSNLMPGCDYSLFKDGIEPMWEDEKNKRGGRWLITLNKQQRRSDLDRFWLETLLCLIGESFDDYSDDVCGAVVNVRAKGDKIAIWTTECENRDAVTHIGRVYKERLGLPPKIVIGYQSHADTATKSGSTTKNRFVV

Dual specificity protein phosphatase 3, sequence (P51452 whole entry): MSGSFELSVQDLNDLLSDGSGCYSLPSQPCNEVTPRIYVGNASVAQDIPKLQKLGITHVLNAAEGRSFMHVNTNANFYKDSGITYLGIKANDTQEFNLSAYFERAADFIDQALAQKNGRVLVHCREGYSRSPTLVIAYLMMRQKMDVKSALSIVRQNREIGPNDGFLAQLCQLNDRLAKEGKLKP
Alkaline phosphatase, placental type, sequence (P05187 whole entry): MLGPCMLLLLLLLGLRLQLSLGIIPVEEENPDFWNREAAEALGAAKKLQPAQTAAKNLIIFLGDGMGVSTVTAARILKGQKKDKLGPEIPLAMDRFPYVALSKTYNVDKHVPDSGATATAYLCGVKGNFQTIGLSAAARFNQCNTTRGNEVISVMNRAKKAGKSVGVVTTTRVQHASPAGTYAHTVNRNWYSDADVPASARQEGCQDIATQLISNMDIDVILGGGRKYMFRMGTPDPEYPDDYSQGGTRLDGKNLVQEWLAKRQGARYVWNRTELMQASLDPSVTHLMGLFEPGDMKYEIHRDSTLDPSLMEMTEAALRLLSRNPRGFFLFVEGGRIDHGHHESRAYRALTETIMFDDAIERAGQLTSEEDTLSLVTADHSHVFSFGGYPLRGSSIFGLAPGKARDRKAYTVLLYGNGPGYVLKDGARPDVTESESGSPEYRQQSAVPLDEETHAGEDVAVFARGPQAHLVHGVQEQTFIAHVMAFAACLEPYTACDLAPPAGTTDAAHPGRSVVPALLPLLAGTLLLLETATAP
E3 ubiquitin-protein ligase XIAP, sequence (P98170 whole entry): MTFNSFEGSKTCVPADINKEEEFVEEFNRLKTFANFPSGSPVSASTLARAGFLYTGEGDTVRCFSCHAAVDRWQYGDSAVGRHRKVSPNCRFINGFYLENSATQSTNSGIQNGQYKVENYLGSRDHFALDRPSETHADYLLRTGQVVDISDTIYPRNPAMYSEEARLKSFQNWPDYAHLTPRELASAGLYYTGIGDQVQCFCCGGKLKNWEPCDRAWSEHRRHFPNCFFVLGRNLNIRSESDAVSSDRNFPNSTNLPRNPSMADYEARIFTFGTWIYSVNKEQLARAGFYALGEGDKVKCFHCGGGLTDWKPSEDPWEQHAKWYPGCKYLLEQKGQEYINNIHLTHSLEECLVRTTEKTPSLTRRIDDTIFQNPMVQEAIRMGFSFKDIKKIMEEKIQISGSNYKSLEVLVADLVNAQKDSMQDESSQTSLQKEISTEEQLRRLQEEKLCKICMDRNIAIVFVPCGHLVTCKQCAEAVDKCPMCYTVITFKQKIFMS

EC50 [1]: 4.26 µM (active)
IC50 [2]: > 100 µM (inactive)
IC50 [3]: > 100 µM (inactive)
AC50 [4]: 11.2 µM (active)
IC50 [5]: 31.5 µM (active)
Compound: Nc1ccc2c(c1)OC1(CCCC1)O2

Compound: Oc1ccc(CCNC(=S)Nc2ccc(Cl)cc2Cl)cc1O
IC50 [6]: 18.8 µM (active)
IC50 [7]: 30.5 µM (active)

IC50 (Bcl-2-related protein A1): > 20 µM (inactive)
IC50 [8]: 12.3 µM (active)
IC50 [9]: > 20 µM (inactive)
Compound: CSCCC(NC(=O)COc1ccccc1)C(=O)N1CCC(C(N)=O)CC1 (stereo not given)

Compound: CCCOc1ccc(C(=S)NCc2ccc(F)c(C(F)(F)F)c2)cc1
IC50 [6]: 39.2 µM (active)
IC50 [7]: 71.7 µM (active)

Compound: CC(=O)Nc1ccc(/N=C/c2c(O)c(C(=O)Nc3ccccc3)cc3ccccc23)cc1
IC50 [10]: > 20 µM (inactive)
AC50 [11]: 1.01 µM (active)
IC50 [12]: 50 µM (inactive)
